Assay results taken from publication doi:10.1101/2024.06.26.600887v2 (biorxiv, 2024).

Columns and labels:
[1] = molecular target: T1, His-HAO1 (recombinant glycolate oxidase, 2-hydroxyacid oxidase) (Homo sapiens, UniProt Q9UJM8); test: DSF thermal stabilisation, SYPRO Orange; format: binding
T1 sequence (Q9UJM8 1-370): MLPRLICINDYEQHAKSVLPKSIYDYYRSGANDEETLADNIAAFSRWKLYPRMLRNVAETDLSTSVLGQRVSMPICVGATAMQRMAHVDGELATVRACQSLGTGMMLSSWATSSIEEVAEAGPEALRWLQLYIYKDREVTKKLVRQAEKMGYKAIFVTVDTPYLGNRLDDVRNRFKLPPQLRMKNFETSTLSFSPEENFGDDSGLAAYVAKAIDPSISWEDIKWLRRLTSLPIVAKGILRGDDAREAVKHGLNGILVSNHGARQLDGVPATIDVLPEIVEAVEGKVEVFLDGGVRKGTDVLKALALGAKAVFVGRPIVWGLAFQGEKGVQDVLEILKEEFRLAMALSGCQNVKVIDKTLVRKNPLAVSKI

HAO1-HiBiT = molecular target: T2, HAO1-HiBiT (Homo sapiens, UniProt Q9UJM8); test: SplitLuc CETSA in HEK293T lysate, LgBiT luminescence; format: biochemical
T2 sequence (Q9UJM8 1-370): T1 sequence (Q9UJM8 1-370)

[2] = molecular target: T1, His-HAO1 (recombinant glycolate oxidase, 2-hydroxyacid oxidase); test: Amplex Red activity assay; format: biochemical
[3] = molecular target: T1, His-HAO1 (recombinant glycolate oxidase, 2-hydroxyacid oxidase); test: SPR; format: binding

Row | EC50 [1] [nM] | EC50 (HAO1-HiBiT) [nM] | IC50 [2] [nM] | Kd [3] [nM] | SMILES
1 | 3980 | 1800 | 20 | 4.4 | O=C(O)c1nn[nH]c1Oc1ccc(-c2ccc(C3CC(F)(F)C3)cc2)cc1 [compound 2, Compound 2]
2 | 5010 | 2200 | 25.1 | 3.9 | NS(=O)(=O)c1ccc(Cc2c(-c3ccc(F)c(-c4ccc(Oc5nn[nH]c5C(=O)O)cc4)c3)nn(-c3nc(C(=O)O)cs3)c2CC2CC2)cc1F [compound 1, Compound 1]
